Test results from PubChem BioAssay (NCI).
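Where inhibition never reached the appropriate level, the endpoint shown equals the highest concentration tested. Otherwise, values were interpolated linearly from a five-concentration, 48-hour dose response in 96-well plates. GI50: concentration for 50% inhibition of growth. TGI marks complete inhibition of growth.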

Experiments:
Experiment in all cases: NCI anticancer screen, dose series, 48 h
[1] = test system: IGROV1 ovarian
[2] = test system: U251 CNS
[3] = test system: SF-539 CNS
[4] = test system: SF-295 CNS
[5] = test system: HOP-62 NSCLC
[6] = test system: KM12 colon
[7] = test system: A549 NSCLC
[8] = test system: HL-60(TB) leukemia
[9] = test system: SN12C renal
[10] = test system: MOLT-4 leukemia
[11] = test system: NCI-H226 lung
[12] = test system: T-47D breast
[13] = test system: MALME-3M melanoma
[14] = test system: MDA-MB-435
[15] = test system: SF-268 CNS
[16] = test system: TK-10 renal
[17] = test system: A498 renal
[18] = test system: SNB-75 CNS
[19] = test system: OVCAR-5 ovarian
[20] = test system: HCT-116 colon
[21] = test system: SK-MEL-2 melanoma
[22] = test system: HT29 colon
[23] = test system: ACHN renal
[24] = test system: OVCAR-4 ovarian
[25] = test system: EKVX NSCLC
[26] = test system: PC-3 prostate
[27] = test system: NCI-H460 lung
[28] = test system: UACC-257 melanoma
[29] = test system: MDA-MB-231 breast
[30] = test system: UACC-62 melanoma
[31] = test system: SK-OV-3 ovarian
[32] = test system: RXF 393 renal
[33] = test system: RPMI-8226 leukemia
[34] = test system: CAKI-1 renal
[35] = test system: HCC-2998 colon
[36] = test system: UO-31 renal
[37] = test system: SK-MEL-28 melanoma
[38] = test system: COLO 205 colon
[39] = test system: DU-145 prostate
[40] = test system: 786-0 renal
[41] = test system: OVCAR-8 ovarian
[42] = test system: HCT-15 colon
[43] = test system: CCRF-CEM leukemia
[44] = test system: SNB-19 CNS
[45] = test system: OVCAR-3 ovarian
[46] = test system: NCI-H522 lung
[47] = test system: HOP-92 NSCLC
[48] = test system: MCF7 breast
[49] = test system: NCI/ADR-RES ovarian
[50] = test system: SW-620 colon
[51] = test system: SK-MEL-5 melanoma
[52] = test system: LOX IMVI melanoma
[53] = test system: BT-549 breast
[54] = test system: HS 578T breast

`OC(COc1ccc(F)cc1)Cn1cnc2c(Cl)ncnc21` (stereo not drawn) was tested, and the GI50 [1] was 47.4 µM, the TGI [1] was > 100 µM and the GI50 [2] was > 100 µM. For the same compound, the TGI [2] was > 100 µM, the GI50 [3] was > 100 µM and the TGI [3] was > 100 µM. The GI50 [4] was > 100 µM, the TGI [4] was > 100 µM and the GI50 [5] was > 100 µM. For the same compound, the TGI [5] was > 100 µM, the GI50 [6] was > 100 µM and the TGI [6] was > 100 µM. For the same compound, the GI50 [7] was > 100 µM, the TGI [7] was > 100 µM and the GI50 [8] was 36.3 µM. For the same compound, the TGI [8] was > 100 µM, the GI50 [9] was > 100 µM and the TGI [9] was > 100 µM. For the same compound, the GI50 [10] was 32.5 µM, the TGI [10] was > 100 µM and the GI50 [11] was > 100 µM. For the same compound, the TGI [11] was > 100 µM, the GI50 [12] was > 100 µM and the TGI [12] was > 100 µM. The GI50 [13] was 33.6 µM, the TGI [13] was > 100 µM and the GI50 [14] was 41.6 µM. For the same compound, the TGI [14] was > 100 µM, the GI50 [15] was 97.4 µM and the TGI [15] was > 100 µM. For the same compound, the GI50 [16] was 63.3 µM, the TGI [16] was > 100 µM and the GI50 [17] was > 100 µM. The TGI [17] was > 100 µM, the GI50 [18] was > 100 µM and the TGI [18] was > 100 µM. The GI50 [19] was > 100 µM, the TGI [19] was > 100 µM and the GI50 [20] was > 100 µM. The TGI [20] was > 100 µM, the GI50 [21] was > 100 µM and the TGI [21] was > 100 µM. The GI50 [22] was > 100 µM, the TGI [22] was > 100 µM and the GI50 [23] was 62.4 µM. For the same compound, the TGI [23] was > 100 µM, the GI50 [24] was > 100 µM and the TGI [24] was > 100 µM. The GI50 [25] was > 100 µM, the TGI [25] was > 100 µM and the GI50 [26] was > 100 µM. The TGI [26] was > 100 µM, the GI50 [27] was > 100 µM and the TGI [27] was > 100 µM. The GI50 [28] was 46.8 µM, the TGI [28] was > 100 µM and the GI50 [29] was 64.7 µM. For the same compound, the TGI [29] was > 100 µM, the GI50 [30] was 79 µM and the TGI [30] was > 100 µM. The GI50 [31] was > 100 µM, the TGI [31] was > 100 µM and the GI50 [32] was 1.78 µM. For the same compound, the TGI [32] was 44.4 µM, the GI50 [33] was 39.7 µM and the TGI [33] was > 100 µM. For the same compound, the GI50 [34] was 19.9 µM, the TGI [34] was 37.6 µM and the GI50 [35] was 19.3 µM. For the same compound, the TGI [35] was 42.3 µM, the GI50 [36] was > 100 µM and the TGI [36] was > 100 µM. The GI50 [37] was > 100 µM, the TGI [37] was > 100 µM and the GI50 [38] was > 100 µM. For the same compound, the TGI [38] was > 100 µM, the GI50 [39] was > 100 µM and the TGI [39] was > 100 µM. For the same compound, the GI50 [40] was > 100 µM, the TGI [40] was > 100 µM and the GI50 [41] was 78.6 µM. For the same compound, the TGI [41] was > 100 µM, the GI50 [42] was 32.4 µM and the TGI [42] was > 100 µM. For the same compound, the GI50 [43] was 50.8 µM, the TGI [43] was > 100 µM and the GI50 [44] was > 100 µM. The TGI [44] was > 100 µM, the GI50 [45] was 74 µM and the TGI [45] was > 100 µM. The GI50 [46] was > 100 µM, the TGI [46] was > 100 µM and the GI50 [47] was > 100 µM. The TGI [47] was > 100 µM, the GI50 [48] was > 100 µM and the TGI [48] was > 100 µM. For the same compound, the GI50 [49] was > 100 µM, the TGI [49] was > 100 µM and the GI50 [50] was 72.9 µM. For the same compound, the TGI [50] was > 100 µM, the GI50 [51] was 81.4 µM and the TGI [51] was > 100 µM. For the same compound, the GI50 [52] was 39.1 µM, the TGI [52] was > 100 µM and the GI50 [53] was > 100 µM. The TGI [53] was > 100 µM, the GI50 [54] was 37.9 µM and the TGI [54] was > 100 µM.
